Measurements taken from PubChem BioAssay AID248 (DTP/NCI, 2004).
Toxic doses and inconclusive results are not listed.

Test system: L1210 leukemia ip in BDF1 mice, survival T/C
Assay: NCI In Vivo Anticancer Drug Screen. Data for tumor model L1210 Leukemia (intraperitoneal) in B6D2F1 (BDF1) mice
Conditions: endpoint: mean survival time, higher = longer survival
Method in brief: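 Tumor cells were implanted, animals were treated, and survival was followed. The result divides the treated measurement by the vehicle-control measurement.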

[1] = dose: 100.0 mg/kg/injection, schedule: Q01DX001 (ip), vehicle: saline
[2] = dose: 200.0 mg/kg/injection, schedule: Q01DX001 (ip), vehicle: saline
[3] = dose: 400.0 mg/kg/injection, schedule: Q01DX001 (ip), vehicle: saline
[4] = dose: 100.0 mg/kg/injection, schedule: Q01DX001 (ip), vehicle: carboxymethylcellulose (CMC)
[5] = dose: 200.0 mg/kg/injection, schedule: Q01DX001 (ip), vehicle: carboxymethylcellulose (CMC)
[6] = dose: 400.0 mg/kg/injection, schedule: Q01DX001 (ip), vehicle: carboxymethylcellulose (CMC)

**Q.** How did the T/C (dose: 100.0 mg/kg/injection, schedule: Q01DX009 (ip), vehicle: Klucel (hydroxypropylcellulose) (HPC)) turn out when `Cc1cc(C)c(NC(=S)NC(=O)c2cccc3ccccc23)c(C)c1` was run?
**A.** Its T/C is 98 % of control.

**Q.** What about the T/C (dose: 100.0 mg/kg/injection, schedule: Q04DX003 (ip), vehicle: Klucel (hydroxypropylcellulose) (HPC)) of the same compound?
**A.** Its T/C is 103 % of control.

**Q.** And the T/C (dose: 200.0 mg/kg/injection, schedule: Q01DX009 (ip), vehicle: Klucel (hydroxypropylcellulose) (HPC))?
**A.** The T/C was 106 % of control.

**Q.** What about the T/C (dose: 200.0 mg/kg/injection, schedule: Q04DX003 (ip), vehicle: Klucel (hydroxypropylcellulose) (HPC)) of the same compound?
**A.** The T/C was 97 % of control.

**Q.** And the T/C (dose: 400.0 mg/kg/injection, schedule: Q01DX009 (ip), vehicle: Klucel (hydroxypropylcellulose) (HPC))?
**A.** The T/C was 95 % of control.

**Q.** And the T/C (dose: 400.0 mg/kg/injection, schedule: Q04DX003 (ip), vehicle: Klucel (hydroxypropylcellulose) (HPC))?
**A.** Its T/C is 103 % of control.

**Q.** For `O=C(Nc1ccc(C2=NCCN2)cc1)c1cncc(C(=O)Nc2ccc(C3=NCCN3)cc2)n1`, which T/C (dose: 31.0 mg/kg/injection, schedule: Q01DX Z (ip), vehicle: carboxymethylcellulose (CMC)) is on record?
**A.** Its T/C is 109 % of control.

**Q.** And the T/C (dose: 62.5 mg/kg/injection, schedule: Q01DX Z (oral), vehicle: water)?
**A.** The T/C was 94 % of control.

**Q.** What about the T/C (dose: 125.0 mg/kg/injection, schedule: Q01DX Z (ip), vehicle: carboxymethylcellulose (CMC)) of the same compound?
**A.** Its T/C is 168 % of control.

**Q.** And the T/C (dose: 125.0 mg/kg/injection, schedule: Q01DX Z (oral), vehicle: water)?
**A.** The T/C was 100 % of control.

**Q.** What about the T/C (dose: 250.0 mg/kg/injection, schedule: Q01DX Z (ip), vehicle: carboxymethylcellulose (CMC)) of the same compound?
**A.** Its T/C is 227 % of control.

**Q.** What about the T/C (dose: 250.0 mg/kg/injection, schedule: Q01DX Z (oral), vehicle: water) of the same compound?
**A.** Its T/C is 97 % of control.

**Q.** What about the T/C (dose: 500.0 mg/kg/injection, schedule: Q01DX Z (oral), vehicle: water) of the same compound?
**A.** The T/C was 97 % of control.

**Q.** How did the T/C [1] turn out when `CCOC(=O)C(C(=O)O)C(C)C` (stereo not given) was run?
**A.** Its T/C is 97 % of control.

**Q.** What about the T/C [2] of the same compound?
**A.** Its T/C is 93 % of control.

**Q.** Which results are given for `C(=N\Nc1c2ccccc2nc2ccccc12)/c1ccc2c(c1)OCO2`?
**A.** T/C [1]: 89 % of control; T/C [2]: 100 % of control; T/C [3]: 89 % of control

**Q.** Which results are given for `CC(C)(C)OC(=O)C1=CNCCC1`?
**A.** T/C [1]: 102 % of control; T/C (dose: 100.0 mg/kg/injection, schedule: Q04DX003 (ip), vehicle: saline): 106 % of control; T/C [2]: 94 % of control; T/C (dose: 200.0 mg/kg/injection, schedule: Q04DX003 (ip), vehicle: saline): 98 % of control; T/C [3]: 105 % of control

**Q.** With `CCCCNP(=S)(NCCCC)c1ccccc1` as the compound, how does the T/C [1] read?
**A.** Its T/C is 98 % of control.

**Q.** What about the T/C [2] of the same compound?
**A.** The T/C was 93 % of control.

**Q.** What about the T/C [3] of the same compound?
**A.** Its T/C is 95 % of control.

**Q.** What does the source list for `CCOC(=O)CCN(Cc1ccccc1)C(COC)C(=O)OCC` (stereo not given)?
**A.** T/C [1]: 97 % of control; T/C [2]: 90 % of control; T/C [3]: 101 % of control

**Q.** What does the source list for `N#Cc1cccc(OCCOc2cccc3ccccc23)c1`?
**A.** T/C (dose: 100.0 mg/kg/injection, schedule: Q01DX001 (ip), vehicle: saline with Tween-80): 96 % of control; T/C (dose: 200.0 mg/kg/injection, schedule: Q01DX001 (ip), vehicle: saline with Tween-80): 94 % of control; T/C (dose: 400.0 mg/kg/injection, schedule: Q01DX001 (ip), vehicle: saline with Tween-80): 87 % of control

**Q.** `O=[N+]([O-])c1ccc2c(c1)/C(=N\O)c1cc(Cl)ccc1-2` was tested. Which T/C [4] did it give?
**A.** Its T/C is 97 % of control.

**Q.** What about the T/C [5] of the same compound?
**A.** Its T/C is 97 % of control.

**Q.** What about the T/C [6] of the same compound?
**A.** The T/C was 94 % of control.

**Q.** Which T/C (dose: 50.0 mg/kg/injection, schedule: Q04DX002 (ip), vehicle: Klucel (hydroxypropylcellulose) (HPC)) does the source give for `Cc1cc(C)c(NC(C)C)c(C)c1N` here?
**A.** The T/C was 92 % of control.

**Q.** And the T/C [1]?
**A.** Its T/C is 104 % of control.

**Q.** What about the T/C (dose: 100.0 mg/kg/injection, schedule: Q04DX002 (ip), vehicle: Klucel (hydroxypropylcellulose) (HPC)) of the same compound?
**A.** Its T/C is 92 % of control.

**Q.** What about the T/C [2] of the same compound?
**A.** The T/C was 92 % of control.

**Q.** And the T/C (dose: 200.0 mg/kg/injection, schedule: Q04DX002 (ip), vehicle: Klucel (hydroxypropylcellulose) (HPC))?
**A.** Its T/C is 95 % of control.

**Q.** And the T/C [3]?
**A.** Its T/C is 93 % of control.

**Q.** `O=C(O)CC(c1ccccc1)n1ccc(=O)[nH]c1=O` (stereo not given) was tested. Which T/C (dose: 25.0 mg/kg/injection, schedule: Q01DX001 (ip), vehicle: Klucel (hydroxypropylcellulose) (HPC)) did it give?
**A.** The T/C was 103 % of control.

**Q.** And the T/C (dose: 50.0 mg/kg/injection, schedule: Q01DX001 (ip), vehicle: Klucel (hydroxypropylcellulose) (HPC))?
**A.** Its T/C is 106 % of control.

**Q.** What about the T/C (dose: 100.0 mg/kg/injection, schedule: Q01DX001 (ip), vehicle: Klucel (hydroxypropylcellulose) (HPC)) of the same compound?
**A.** Its T/C is 101 % of control.

**Q.** What does the source list for `COC1C(O)C(CO)OC1n1cnc2c(=S)nc(N)[nH]c21` (stereo not given)?
**A.** T/C (dose: 266.0 mg/kg/injection, schedule: Q01DX001 (ip), vehicle: carboxymethylcellulose (CMC)): 153 % of control; T/C [6]: 157 % of control; T/C (dose: 600.0 mg/kg/injection, schedule: Q01DX001 (ip), vehicle: carboxymethylcellulose (CMC)): 153 % of control

**Q.** For `O=[N+]([O-])c1cccc(N(c2ccccc2)c2ccccc2)c1`, which T/C [4] is on record?
**A.** Its T/C is 108 % of control.

**Q.** What about the T/C [5] of the same compound?
**A.** Its T/C is 108 % of control.

**Q.** And the T/C [6]?
**A.** The T/C was 100 % of control.
